Data set [1] deals with T1, genetically engineered tyrosine aminotransferase (Escherichia coli, UniProt P04693).
T1 construct: made in house; host or cells: E. coli
In words: Tyrosine aminotransferase-catalyzed amino transfer to 2-oxo-4-phenylbutyric acid with various amino acids as amino donors. Also noted: initial rate: unit not given here. Type of data set: biochemical, E. coli. As to conditions: amino acid 0.20 mmol, 2-oxo-4-phenylbutyric acid 0.10 mmol, enzyme 1 unit, 5 mL Tris-HCl 20 mM pH 8.5, 37° C., 5 min; for initial rate: increase of homophenylalanine by HPLC. From the text: Production of tyrosine aminotransferase: Genetically engineered tyrosine aminotransferase is preferably produced by overexpressing the gene product in E. coli according to the method described by Kuramitsu et al. in Biochem, Biophys. Res. Commu., 1989, 133:134, the contents of which are herein incorporated by references in their entirety. One unit of enzyme activity was defined as the activity that produces 1 μmol of product per minute.
The enzymatic activities of the genetically engineered tyrosine aminotransferase as described above were tested using various amino acids as amino donors and the results are shown in Table I. Each enzyme-catalyzed reaction was carried out in a mixture (5 mL) of Tris-HCl buffer (20 mM, pH 8.5) containing the tested amino acid (0.20 mmol) and 2-oxo-4-phenylbutyric acid (0.10 mmol) and the enzyme (1 unit) at 37° C. for 5 min. The initial rate was measured by calculating the increase of homophenylalanine concentration in each reaction based on HPLC analysis.

Data set [2] concerns microbial aminotransferase. The settings on record: at more than 0.2M; cited from earlier work.
Data set [3] has as its target T2, tyrosine aminotransferase (Escherichia coli, UniProt P04693).
T2 construct: made in house; host or cells: E. coli
In words: Equilibrium constants of the tyrosine aminotransferase-catalyzed reaction with 2-oxo-4-phenylbutyric acid and various amino acids. Type of data set: biochemical, E. coli. As to conditions: 2-oxo-4-phenylbutyric acid and the amino acid as substrates. The method, then: (§1) The HPLC chromatography is preferably conducted under the following conditions: column, 5C18; flow rate, 1 ml/min; gradient elution from an initial solution of 10% of eluent B+90% of eluent A to a final solution of 100% of eluent B in 20 minutes, wherein eluent A contains 5% ACN in 0.1% TFA and eluent B contains 95% ACN in 0.1% TFA; detector UV 214 nm. Initially, only peaks representing the starting materials L-glutamic acid having a retention time of 2.70 min and compound 1 having a retention time of 7.49 min appear in the HPLC graph as shown in the lower panel of FIG. 3. After adding the tyrosine aminotransferase, the areas of peaks corresponding to compound 1 and glutamic acid are decreased gradually, whereas areas of peaks corresponding to compound 2 having a retention time of 5.24 min and α-ketoglutamic acid having a retention time of 3.49 min are increased, as shown in the upper panel of FIG. 3. When the area of the peak representing compound 1 is reduced to one-fifth of the initial peak area, white precipitates appear in the reaction solution, while the peak area of compound 2 becomes stable and stays constant until the peak areas of compound 1 and glutamic acid are reduced to about baseline.

The format of data set [4] is physicochemical. The settings on record: pH 8.5. The protocol:
Synthesis of L-homophenylalanine: The synthesis is conducted preferably in a reaction mixture (5 ml) containing Tris-HCl buffer (50 mM, pH 8.5), compound 1 (10 mmole, the final concentration of compound 1 is about 2 M), L-Glu (10 mM), pyridoxal 5-phosphate (20 mM) at 37° C. The reaction is initiated by adding the tyrosine aminotransferase (5 units) to the reaction solution and monitored by HPLC.
as §1, with “When the area of the peak representing compound 1 is reduced to one-fifth of the initial peak area, white precipitates appear in the reaction solution, while the peak area of compound 2 becomes stable and stays constant until the peak areas of compound 1 and glutamic acid are reduced to about baseline.” left out

“And” between values parts separate entries of the source, which are not always exact repeats. Equal entries are not always repeated.

T1 sequence (P04693 whole entry, change not shown): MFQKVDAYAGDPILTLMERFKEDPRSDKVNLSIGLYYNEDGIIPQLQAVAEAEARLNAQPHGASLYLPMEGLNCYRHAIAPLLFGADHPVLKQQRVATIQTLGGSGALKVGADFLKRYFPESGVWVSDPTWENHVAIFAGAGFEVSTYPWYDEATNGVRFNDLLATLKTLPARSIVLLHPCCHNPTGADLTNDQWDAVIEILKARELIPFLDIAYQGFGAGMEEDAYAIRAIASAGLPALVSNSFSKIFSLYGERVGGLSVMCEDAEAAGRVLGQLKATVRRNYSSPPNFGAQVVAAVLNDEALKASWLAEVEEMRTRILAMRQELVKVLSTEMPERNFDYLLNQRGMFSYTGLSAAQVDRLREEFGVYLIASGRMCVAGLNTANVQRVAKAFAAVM
T2 sequence (P04693 whole entry): as the sequence (P04693 whole entry, change not shown) above

In data set [1], `N[C@@H](CO)C(=O)O` [L-Ser, serine] gave a turnover rate of 0.002 mM/min.unit and an initial rate of 0.01.

In data set [1], `C[C@@H](O)[C@H](N)C(=O)O` [L-Thr, threonine] had a turnover rate of 0.009 mM/min.unit and an initial rate of 0.05.

In the case of `O=C(O)C(=O)CCc1ccccc1` [2-oxo-4-phenylbutyric acid], the “inhibition of aminotransferase activity and conversion yield” value in data set [2] was “markedly inhibited”.

In data set [1], `NCCCC[C@H](N)C(=O)O` [L-Lys, lysine] yielded a turnover rate of 0.046 mM/min.unit and an initial rate of 0.25.

In the case of `N[C@@H](CCC(=O)O)C(=O)O` [L-Glu, glutamic acid], in data set [1], the turnover rate is 0.539 mM/min.unit and 0.54 mM/min.unit; the initial rate is 2.96. For the same compound, the “Equilibrium Constant (Keq)” value in data set [3] was determined as 0.345.

In data set [1], `NCC(=O)O` [L-Gly, glycine] returned a turnover rate of 0.027 mM/min.unit and an initial rate of 0.15.

In data set [1], `C[C@H](N)C(=O)O` [L-Ala, alanine] came in with a turnover rate of 0.042 mM/min.unit and an initial rate of 0.23.

As for `N[C@@H](Cc1ccccc1)C(=O)O` [L-Phe, phenylalanine], in data set [1], the turnover rate was 0.605 mM/min.unit and 0.61 mM/min.unit; the initial rate is reported as 3.32. In data set [3], the “Equilibrium Constant (Keq)” value was found to be 0.466.

As for `CC(C)[C@H](N)C(=O)O` [L-Val, valine], in data set [1], the turnover rate is 0.058 mM/min.unit and the initial rate is listed as 0.32.

In data set [1], `N[C@@H](Cc1c[nH]cn1)C(=O)O` [L-His, histidine] showed a turnover rate of 0.089 mM/min.unit and an initial rate of 0.49.

In data set [1], `CC[C@H](C)[C@H](N)C(=O)O` [L-Ile, isoleucine] displayed a turnover rate of 0.005 mM/min.unit and an initial rate of 0.03.

In data set [1], `CSCC[C@H](N)C(=O)O` [L-Met, methionine] gave a turnover rate of 0.268 mM/min.unit and an initial rate of 1.47.

Regarding `N[C@@H](CCc1ccccc1)C(=O)O` [compound 2, L-homophenylalanine], the “solubility in the reaction solution” value in data set [4] is listed as “practically insoluble”.

In data set [1], `CC(C)C[C@H](N)C(=O)O` [L-Leu, leucine] gave a turnover rate of 0.106 mM/min.unit and an initial rate of 0.58.

On to `N[C@@H](Cc1ccc(O)cc1)C(=O)O` [L-Tyr, tyrosine], for which, in data set [1], the turnover rate is 0.619 mM/min.unit and 0.62 mM/min.unit; the initial rate came out at 3.43. Moreover, the “Equilibrium Constant (Keq)” value in data set [3] turned out to be 0.727.

Take `N[C@@H](CC(=O)O)C(=O)O` [L-Asp, aspartic acid]: in data set [1], the turnover rate was 0.372 mM/min.unit and the initial rate came to 2.04. For the same compound, the “Equilibrium Constant (Keq)” value in data set [3] amounted to 0.187.

Values taken from patent US6146859A, “Facile synthesis of L-homophenylalanine by equilibrium shift enzymatic reaction using engineered tyrosine aminotransferase” (Academia Sinica, priority 1999, dated 2000).
